Measured values as given in patent US5792622A, “Assay for chemicals” (priority 1995, dated 1998).
Values after ≈ are worked out from the molar mass of the structure shown. Read-outs that look alike come from different tables or passages of the source.

Tests used:
[1] = Experimental: Solid phenol was dissolved in water and added to the reaction tubes.
R. meliloti [2] = assay: microbe, parasite or virus in culture; assay type: cell-based; conditions: for sensitivity of Rhizobium/Tetrazolium assay compared with Microtox assay: ratio of the inhibitory concentrations
fish (trout fingerlings) = conditions: Table 8, trout fingerlings; cited from earlier work
Rhodobacter sphaeroides = assay: Inhibition of tetrazolium dye reduction by Rhodobacter sphaeroides; assay type: cell-based
Experimental: (§1) The other strains of bacteria, mixed in a buffer with various toxic chemicals, which were tested with the tetrazolium dye, gave varying results. Some bacteria reduced the dye, but the reduction was not inhibited appreciably by toxic chemicals. The absorbance of tetrazolium by Rhodobacter sphaeroides was not inhibited by copper. E. coli reduced the dye, but reduction was not inhibited by xylene. […] FIG. 1 is a graph showing data comparing the absorbance of the bacteria R. meliloti and E. coli at A590 varying between 0.0 and 0.3 in reacting with different toxins.

[3] = cited from earlier work
R. meliloti [4] = conditions: cited from earlier work
R. meliloti NSI = assay: Inhibition of growth of R. meliloti NSI; assay type: cell-based; conditions: read-out: concentration inhibiting growth 50%
Experimental: Typically, R. meliloti is grown in medium with 10-20 uM calcium. Magnesium sulfate, at 59.9 ppm, is 0.2435 mM. The medium MDM contains 0.6 mm Magnesium chloride; this is a concentration found in most defined media. […] CDM, the medium used in the experiments with the assay of the invention, is 0.81 mM with respect to magnesium.

R. sphaeroides = assay type: cell-based; conditions: Table 1, incubation 11:25 hrs
R. leguminosarum = assay type: cell-based; conditions: Table 1, incubation 7:48 hrs
S. typhimurium = assay type: cell-based; conditions: Table 1, incubation 2:00 hrs
A. crystallopoites = assay type: cell-based; conditions: Table 1, incubation 2:00 hrs
E. coli [5] = assay type: cell-based; conditions: Table 1, incubation 1:40 hrs
B. japonicum = assay type: cell-based; conditions: Table 1, incubation 7:48 hrs
Ps fluorescens = assay type: cell-based; conditions: Table 1, incubation 1:57 hrs
B. megaterium = assay type: cell-based; conditions: Table 1, incubation 2:00 hrs
R. meliloti [6] = assay type: cell-based
S. lactis = assay type: cell-based; conditions: Table 1, incubation 9:57 hrs
E. coli [7] = assay: Inhibition of tetrazolium dye reduction by E. coli; assay type: cell-based
Experimental: as §1

With `ClC(Cl)(Cl)Cl` [Carbon tetrachloride] the miscibility in water [1] was “very immiscible in water” and the IC50 (R. meliloti [2]; Sinorhizobium meliloti, Table 4, organic compounds, read-out: average (ppm), concentration giving 50% inhibition of dye reduction) was 3530 µg/mL (≈ 22.9 mM).

For `[Cu]` [Copper], the “Fish LD50 (50% death of the fish)” value (fish (trout fingerlings)) is listed as 0.1-10.7 ppm, the “inhibition of absorbance of tetrazolium” value (Rhodobacter sphaeroides) is listed as “not inhibited” and the “Microtox IC50” value ([3]; Table 8) is listed as 24.96 ppm. The “effect on the reduction of the dye at very low concentrations” value (R. meliloti [2]; FIG. 10) was “stimulates the reduction of the dye at very low concentrations”, the “ppm (50% inhibition of dye reduction)” value (R. meliloti [2]; Table 7, minerals) was 0.960 ppm and the “Rhizobium/Tetrazolium IC50” value (R. meliloti [2]; Table 8) was 0.240 ppm. The “sensitivity of Rhizobium/Tetrazolium assay compared with Microtox assay” value (R. meliloti [2]) was “at least an order of magnitude more sensitive for 4 compounds”.

In the case of `N#CC(C#N)=NNc1ccc(OC(F)(F)F)cc1` [FCCP, carbonyl-cyanide p(triflouromethoxy)phenylhydrozone], the “inhibition of tetrazolium reduction compared with DNP” value (R. meliloti [4]) is given as “at a much lower concentration than does DNP”, the IC50 (R. meliloti [2]) is given as “only a few μl” and the IC50 (R. meliloti [2]; Sinorhizobium meliloti, read-out: average (ppm), concentration giving 50% inhibition of dye reduction) is given as 0.114 µg/mL (≈ 0.000449 mM).

`[Cl-].[Cl-].[Mg+2]` [MgCl2, Magnesium chloride] showed an IC50 (R. meliloti NSI) of 26.9 mM.

With `c1ccc(-c2nn(-c3ccccc3)[n+](-c3cccc4ccccc34)n2)cc1` [TV, 2,5-diphenyl-3-(α-napthyl)tetrazolium chloride] the “absorbance of reduced dye” value (R. sphaeroides) was 0.12, the “absorbance of reduced dye” value (R. leguminosarum) was 0 and the “absorbance of reduced dye” value (S. typhimurium) was 0.04. The “absorbance of reduced dye” value (A. crystallopoites) was 0.08, the “absorbance of reduced dye” value (E. coli [5]) was 0.03 and the “absorbance of reduced dye” value (B. japonicum) was 0.14. For the same compound, the “absorbance of reduced dye” value (Ps fluorescens) was 0.01, the “absorbance of reduced dye” value (B. megaterium) was 0.07 and the “absorbance of reduced dye” value (R. meliloti [6]; Table 1, incubation 2:00 hrs) was 0.08. The “rate of reduction of the dye” value (R. meliloti [6]; in words) was “reduced more slowly than MTT” and the “absorbance of reduced dye” value (S. lactis) was 0.04.

For Xylene, the “inhibition of dye reduction” value (E. coli [7]) is listed as “not inhibited”, the Microtox ppm ([3]; Table 9) is listed as “.70-9.25 ppm” and the “ppm (50% inhibition of reduction)” value (R. meliloti [2]; Table 5, 10,000 ppm stock method) is listed as 151 ppm. For the same compound, the “ppm (50% inhibition of reduction)” value (R. meliloti [2]; Table 5, QSAR method: aqueous phase assayed, hydrocarbon in water estimated by QSAR solubility model) was 30.3 ppm, the “ppm (50% inhibition of reduction)” value (R. meliloti [2]; Table 5, direct method) was 476 ppm and the Rhizobium/Tetrazolium ppm (R. meliloti [2]; Table 9) was 146-452 ppm. For the same compound, the “sensitivity of Rhizobium/Tetrazolium assay compared with Microtox assay” value (R. meliloti [2]) was “at least an order of magnitude more sensitive than the Rhizobium/Tetrazolium assay”.
